Assay results from patent US4650788A, “Novel peptides having an immunostimulating action, processes for their preparation and their use” (Hoechst Aktiengesellschaft, priority 1983, dated 1987).
Square brackets hold non-standard residues; d marks the D form. Peptide text beside a SMILES is read from it.

Legend:
[1] = tested on: lymphocytes (T cells); assay: PHA stimulation test (lymphocyte transformation test); assay type: cell-based; details: Dosage 100 ng/substance/1 ml of cell culture; 10 μg of PHA/1 ml, 72 hours; untreated control 1.00
Text: In the PHA stimulation test (PHA=phytohemagglutinin) or the lymphocyte transformation test, conclusions as to the number of mature, i.e. stimulatable, lymphocytes are drawn not via investigation of the surface antigens but by the function test for ability to be stimulated by the plant lectin PHA. The lymphocytes (T cells) are stimulated to […] transformation by the lectin, in the same way as by bacterial or viral antigens. This leads to proliferation, either directly or by the release of lymphokins. The incorporation of the radiolabeled thymidine within a certain time is then a measure of the number of stimulated cells. Only the mature or immunologically potent T cells are stimulated. The influence of a substance on lymphocyte maturation can therefore be monitored with this test. However, the stimulation must be sub-optimum, since other sub-populations of lymphocytes are also stimulated at higher concentrations and the effect can no longer be observed. The peptides to be investigated have been added to the culture medium in various concentrations. They are present throughout the entire duration of the test (up to 72 hours).

[2] = tested on: spleen cells of mice (B lymphocytes), in vitro immunization with sheep erythrocytes; assay: plaque-forming cell test (PFC test); assay type: cell-based; details: Dosage 100 ng/substance/1 ml of cell culture; mouse spleen cell culture, 5 days; untreated control 221 ± 30
Description: […]. The in vitro immunization is effected with 5×10^7 sheep erythrocytes/ml. The test cell cultures are incubated daily with the corresponding dose of the test substance.
After a running time of 5 days, the cells are centrifuged off and washed with medium RPMI 1640 and the direct PFC test is carried out. For this, the cells are mixed with a 10% sheep erythrocyte suspension in an agarose solution and the mixture is poured onto a flat surface. In the layer of gel formed, the stimulated lymphocytes release antibodies during subsequent incubation, and these diffuse into the environment and attach themselves to the sheep erythrocytes therein. After addition of guinea pig complement, the red blood cells lyse. Light-colored round spots which can be seen with the naked eye form in the reddish-brown gel, i.e. the hemolysis areolas of the plaques. An antibody-producing cell is found in the center of such hemolysis areolas. The number of lymphoid cells which form specific immunoglobulins can consequently be equated with the numbers of plaques found.

CC(C)[C@H]1NC(=O)[C@H](CC(=O)O)NC(=O)[C@H](CCCCN)NC(=O)[C@H](CCCNC(=N)N)NC(=O)[C@H](Cc2ccc(O)cc2)NC1=O [cyclo-(Arg--Lys--Asp--D-Val--Tyr), cyclo-(Arg-Lys-Asp-D-Val-Tyr).2HOAc] (cyclo(D[dV]YRK))
PHA stimulation index [1]: 1.69 | PFC/10^6 cells [2]: 401 ± 64 PFC/10^6 cells

CC(C)[C@@H]1NC(=O)[C@H](CCC(=O)O)NC(=O)[C@H](CCCNC(=N)N)NC(=O)[C@@H](CCCCN)NC(=O)[C@H](Cc2ccc(O)cc2)NC1=O [cyclo-(D-Lys--Arg--Glu--Val--Tyr)] (cyclo(EVY[dK]R))
PHA stimulation index [1]: 1.15 | PFC/10^6 cells [2]: 317 ± 41 PFC/10^6 cells

CC(C)[C@@H]1NC(=O)[C@H](CCC(=O)O)NC(=O)[C@H](CCCCN)NC(=O)[C@H](CCCNC(=N)N)NC(=O)[C@@H](Cc2ccccc2)NC1=O [cyclo-(Arg--Lys--Glu--Val--D-Phe)] (cyclo(EV[dF]RK))
PFC/10^6 cells [2]: 250 ± 31 PFC/10^6 cells

CC(C)[C@@H]1NC(=O)[C@H](CC(=O)O)NC(=O)[C@H](CCCNC(=N)N)NC(=O)[C@@H](CCCCN)NC(=O)[C@H](Cc2ccc(O)cc2)NC1=O [cyclo-(D-Lys--Arg--Asp--Val--Tyr)] (cyclo(DVY[dK]R))
PFC/10^6 cells [2]: 341 ± 43 PFC/10^6 cells

CC(C)[C@H]1NC(=O)[C@H](CCC(=O)O)NC(=O)[C@H](CCCCN)NC(=O)[C@H](CCCNC(=N)N)NC(=O)[C@H](Cc2c[nH]c3ccccc23)NC1=O [cyclo-(Arg--Lys--Glu--D-Val--Trp)] (cyclo(E[dV]WRK))
PHA stimulation index [1]: 1.25 | PFC/10^6 cells [2]: 369 ± 54 PFC/10^6 cells

CC(C)[C@H]1NC(=O)[C@H](CC(=O)O)NC(=O)[C@H](CCCCN)NC(=O)[C@H](CCCNC(=N)N)NC(=O)[C@H](Cc2c[nH]c3ccccc23)NC1=O [cyclo-(Arg--Lys--Asp--D-Val--Trp)] (cyclo(D[dV]WRK))
PFC/10^6 cells [2]: 312 ± 58 PFC/10^6 cells

CC(C)[C@H]1NC(=O)[C@H](CCC(=O)O)NC(=O)[C@H](CCCCN)NC(=O)[C@H](CCCNC(=N)N)NC(=O)[C@H](Cc2ccc(O)cc2)NC1=O [cyclo-(Arg--Lys--Glu--D-Val--Tyr), cyclo-(Arg-Lys-Glu-D-Val-Tyr).2 HOAc] (cyclo(E[dV]YRK))
PHA stimulation index [1]: 1.92 | PFC/10^6 cells [2]: 687 ± 73 PFC/10^6 cells
